The values below come from paper PMC10822116 (Drug Design, Development and Therapy, 2024).

SMILES strings stand for the structures.

The target in data set [1] is human recombinant BuChE (hBuChE) (Homo sapiens, UniProt P06276). Briefly: BuChE inhibition, Ellman spectrophotometry. In kind it is biochemical. The note with it: stronger than donepezil. (In general: Ellman's reagent forms a yellow product with free thiols.)
A further data set has as its system BV-2 cells. Put plainly: CCK-8 cytotoxicity in BV-2 cells. In kind it is cell-based. Conditions: 24 h.
The subject of data set [2] is mice with scopolamine-induced memory impairment. Put plainly: Step-down passive avoidance test, scopolamine-induced memory impairment. In kind it is in vivo.
Another data set deals with PC12 cells. Briefly: CCK-8 cytotoxicity in PC12 cells. The note with it: 24 h. Type of data set: cell-based.
The next data set relates to Kunming mice. Briefly: In vivo acute toxicity.
The target in a further data set is eqBuChE (Equus caballus, UniProt P81908). Put plainly: BuChE inhibition, Ellman spectrophotometry. Type of data set: biochemical, equine. Conditions: more potent than donepezil.
Chain of eqBuChE (P81908 whole entry): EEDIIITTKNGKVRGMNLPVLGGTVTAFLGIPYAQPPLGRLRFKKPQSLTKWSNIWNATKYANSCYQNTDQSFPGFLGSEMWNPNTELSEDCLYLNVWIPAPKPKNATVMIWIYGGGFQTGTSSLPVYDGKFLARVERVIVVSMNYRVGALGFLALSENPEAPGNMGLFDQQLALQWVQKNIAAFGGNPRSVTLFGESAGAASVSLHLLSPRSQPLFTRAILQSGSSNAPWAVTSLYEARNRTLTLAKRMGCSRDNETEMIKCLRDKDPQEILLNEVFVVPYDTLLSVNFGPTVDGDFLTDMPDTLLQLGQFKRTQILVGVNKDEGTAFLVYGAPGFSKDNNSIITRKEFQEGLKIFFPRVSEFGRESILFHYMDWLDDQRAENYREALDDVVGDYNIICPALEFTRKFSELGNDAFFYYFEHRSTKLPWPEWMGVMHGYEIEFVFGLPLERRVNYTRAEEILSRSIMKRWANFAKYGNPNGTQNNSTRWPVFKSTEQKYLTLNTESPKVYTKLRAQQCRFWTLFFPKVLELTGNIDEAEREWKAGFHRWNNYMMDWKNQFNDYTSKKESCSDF
Setting [3] is: 7d 5, 10, 20 mg/kg oral, scopolamine 3 mg/kg i.p., dose-dependent.
Setting [4] is: high-dose 20 mg/kg oral vs donepezil 10 mg/kg.
The mark [5] stands for this setting: medium-dose 10 mg/kg oral vs donepezil 10 mg/kg.

Chain of human recombinant BuChE (hBuChE) (P06276 29-602): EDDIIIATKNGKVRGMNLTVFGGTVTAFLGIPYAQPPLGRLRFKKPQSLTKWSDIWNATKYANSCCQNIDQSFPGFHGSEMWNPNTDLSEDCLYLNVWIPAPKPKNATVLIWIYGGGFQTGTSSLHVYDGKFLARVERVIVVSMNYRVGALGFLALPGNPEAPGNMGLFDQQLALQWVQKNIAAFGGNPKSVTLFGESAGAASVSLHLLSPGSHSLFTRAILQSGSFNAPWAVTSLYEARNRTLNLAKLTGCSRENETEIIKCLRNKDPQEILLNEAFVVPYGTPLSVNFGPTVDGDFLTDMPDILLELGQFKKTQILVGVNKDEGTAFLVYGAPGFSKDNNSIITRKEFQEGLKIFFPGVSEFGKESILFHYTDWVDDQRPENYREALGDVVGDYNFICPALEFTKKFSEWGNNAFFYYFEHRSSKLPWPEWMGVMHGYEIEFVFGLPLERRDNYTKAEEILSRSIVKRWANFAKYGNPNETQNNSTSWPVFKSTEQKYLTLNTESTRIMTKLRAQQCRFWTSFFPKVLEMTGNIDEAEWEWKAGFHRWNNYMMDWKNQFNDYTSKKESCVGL

`C#CCN(C)CCCCCCCOc1cccc(CN(C)c2c3c(nc4ccccc24)CCCC3)c1` [Compound 6f, N-methyl-N-(3-((7-(methyl(prop-2-yn-1-yl)amino)heptyl)oxy)benzyl)-1,2,3,4-tetrahydroacridin-9-amine]: the “hBuChE potency relative to donepezil” value in data set [1] is reported as “approximately 7 fold”.

Compound `C#CCN(C)CCCCCCOCc1ccc(CN(C)c2c3c(nc4ccccc24)CCCC3)cc1` [Compound 7d, N-methyl-N-(4-(((6-(methyl(prop-2-yn-1-yl)amino)hexyl)oxy)methyl)benzyl)-1,2,3,4-tetrahydroacridin-9-amine] returned a Cytotoxicity with BV-2 cells (BV-2, 10 μM) of more than 50%. The “Effect on cell viability” value with BV-2 cells (BV-2, 0.325 to 2.5 μM) is listed as “no significant effect”; with BV-2 cells (BV-2, above 2.5 μM), “decrease in cell viability”; in the data set with PC12 cells (PC12, 0.325 to 2.5 μM), “no significant effect”; with PC12 cells (PC12, above 2.5 μM), “decrease in cell viability”. Besides, in data set [2] (setting [3]), the “Latency in step-down test” value is given as “prolong the latency”. Moreover, the “Number of errors in step-down test” value in data set [2] (setting [3]) is reported as “reduce the number of errors”. Besides, the “Latency compared with donepezil” value was “longer latency” in data set [2] (setting [4]) and “similar” in data set [2] (setting [5]). The results for the “Number of errors compared with donepezil” value in data set [2] (setting [4]) and in data set [2] (setting [5]) were “fewer errors” and “similar”, respectively. In addition, in data set [2] (low-dose 5 mg/kg oral, Kruskal–Wallis test, p = 0.2219), the “Number of errors compared to model group” value is “not statistically significant”. The “Death, abnormal behavior or dietary changes” value with Kunming mice (KM mice, oral 625, 1250 and 2500 mg/kg, monitored 4 h) was “No such effects were observed”. Further, the “Average body weight change” value with Kunming mice (KM mice, single oral dose 625, 1250, 2500 mg/kg, 14 days, vs control group) is recorded as “comparable to that in the control group”. Also, in the data set with Kunming mice (mice, 2500 mg/kg oral, day 14), the “Tissue damage (HE staining of heart, liver, kidney, lung, brain)” value was “no obvious signs of tissue damage”.

Take `C#CCN(C)CCCCCCCOCc1ccc(CN(C)c2c3c(nc4ccccc24)CCCC3)cc1` [Compound 7e, N-methyl-N-(4-(((7-(methyl(prop-2-yn-1-yl)amino)heptyl)oxy)methyl)benzyl)-1,2,3,4-tetrahydroacridin-9-amine]: the “eqBuChE potency relative to donepezil” value on eqBuChE is on record as “approximately 18 fold”.
